From patent US12171821B2, “Toxoplasma gondii vaccine” (priority 2018, dated 2024)
Where “and” joins values, the source holds several entries; their conditions need not be identical. Equal values may be shown once.

Assays:
[1] = test system: T. gondii ME49 bradyzoites; experiment: Merozoite markers GRA11B/BRP1, immunofluorescence, infected cat intestinal monolayers; assay type: cell-based, Toxoplasma gondii; conditions: 200 μM fatty acid, 5 days of infection
Method: FIGS. 6A-B. Quantification of merozoites in cat tissue culture. A) Cat intestinal organoids were disassociated by trypsin then grown as monolayers on glass slides. Slides were divided into three different groups: not supplemented with fatty acid, supplemented with 200 μM oleic acid or supplemented 200 μM linoleic acid. Monolayers were infected with T. gondii MEM bradyzoites purified from brains of chronic infected mice at a 1:10 MOI. Five days after infection, staining for GRA11B and BRP1 along with DAPI, allowed the percentage of vacuoles positive for GRA11B and BRP1out of the total vacuoles was determined. Total number of parasitophorous vacuoles were counted by positive DAPI staining and confirmed by morphology with DIC. At least 50 parasitophorous vacuoles were counted per replicate. Three biological replicates were counted and on average 35% of the total vacuoles were positive far both GRA11B and BRP1 in the linoleic acid supplemented monolayers. *p-value=0.0126 with N=3 by two-tailed unpaired t test. Straining for both BRP1 and GRA11B was used to ensure that merozoite stages were counted. […] BRP1 is a rhoptry protein that was initially found in bradyzoites; however, it is also expressed in merozoite. […]

asexual tachyzoite stage = conditions: prior work (Shamseddin et al., 2015); cited from earlier work
T. gondii = experiment: Real-time PCR (SAG1) on gDNA of mouse fecal samples; assay type: in vivo, Toxoplasma gondii; conditions: gDNA of mouse fecal samples
Method: Delta-6-desaturase inhibition. SC 26196 (Cayman) was solubilized in DMSO and used at 20 μM in mouse organoid monolayers. For in vivo treatment, the inhibitor was solubilized in 0.5% m/v methylcellulose and the mice were given 50 mg/kg every 12 hours by oral gavage (He et al., 2012). 4-week old C57BL/6J female mice deleted in Z-DNA-binding protein (Pittman et al., 2016) were divided into four different groups: uninfected control, T. gondii-infected without fatty acid supplementation, T. gondii infected with linoleic acid supplementation, and T. gondii-infected with linoleic acid and SC 26196 inhibitor. Each mouse supplemented with linoleic acid received 10 μL of 99% linoleic acid oil (MilliporaSigma Cat #843483) suspended in 0.5% Methylcellulose per day by oral gavage. Mice were infected with 1000 brain cysts purified as described above by oral gavage and euthanized 7 days post infection. Sample size was at least 2 mice per group and the experiment was repeated 5 times. Alternatively, each mouse was infected with one mouse brain at least 2 months postinfection with at least 1000 cysts. Mice were treated with SC 26196 until day 5 postinfection. Feces were collected from days 5-14 and oocysts enumerated by microscopy.
Real-time PCR on fecal samples. […] A standard curve was generated using a dilution series of 101-105 parasites per well amplified using the SAG1 primer set described above, based on a gDNA sample with known parasite quantity. […]
[formula] […] The calculated copy numbers of each sample were normalized based on the ng of nucleic acid used as PCR template. […]
Statistical methods. […] The difference between the mean target gene copy numbers was analyzed by two-tailed unpaired t tests. […] The difference between the mean relative expression of each target gene was analyzed by two-tailed unpaired t tests.

CCCCC/C=C\C/C=C\CCCCCCCC(=O)O [linoleic acid]
parasites undergoing sexual development / merozoite stage markers GRA11B and BRP1 (staining) [1]: commonly seen only with linoleic acid supplementation
cytotoxicity for the asexual tachyzoite stage (asexual tachyzoite stage): cytotoxic
SAG1 Ct mean (T. gondii): 35.84
SAG1 raw Ct values (T. gondii; wells 1-3): 37.02 and 36.43 and 34.08
